Experimental data from patent publication US8735412B2, “Sulfoximine-substituted anilinopyrimidine derivatives as CDK inhibitors, the production thereof, and use as medicine” (Bayer Intellectual Property GmbH, priority 2008, dated 2014).

Key:
[1] = biological target: T1, CDK1/CycB (Homo sapiens, UniProt P06493); assay: CDK1/CycB kinase assay (Assay 1); type: biochemical; conditions: 0.5 μM ATP, histon IIIS substrate; read-out: CDK1/CycB (Assay 1) Concentration for 50% inhibition of enzyme activity, IC50
T1 construct: purchased ProQinase GmbH, Freiburg; host or cells: baculovirus-infected insect cells (Sf9)
Protocol: 10.1 Assay 1: CDK1/CycB Kinase Assay
Recombinant CDK1 and CycB-GST fusion proteins, purified from baculovirus-infected insect cells (Sf9), were purchased from ProQinase GmbH, Freiburg. The histon IIIS used as kinase substrate is commercially available from the company Sigma.
CDK1/CycB (200 ng/measuring point) was incubated for 10 min at 22° C. in the presence of various concentrations of test substances (0 μM, and within the range 0.01-100 μM) in assay buffer [50 mM Tris/HCl pH8.0, 10 mM MgCl2, 0.1 mM Na ortho-vanadate, 1.0 mM dithiothreitol, 0.5 μM adenosine triphosphate (ATP), 10 μg/measuring point histon IIIS, 0.2 μCi/measuring point ^33P-gamma ATP, 0.05% NP40, 1.25% dimethylsulfoxide]. The reaction was stopped by adding EDTA solution (250 mM, pH8.0, 15 μl/measuring point).
(§1) From each reaction mixture, 15 μl was applied to P30 filter strips (from Wallac), and unincorporated ^33P-ATP was removed by washing the filter strips three times, for 10 min each time, in 0.5% phosphoric acid. After drying the filter strips for 1 hour at 70° C., the filter strips were covered with scintillator strips (MeltiLex™ A, from Wallac) and stoved for 1 hour at 90° C. The amount of incorporated ^33P (substrate phosphorylation) was determined by scintillation measurement in a gamma-radiation measuring instrument (Wallac). The measured data were standardized to 0% inhibition (enzyme reaction without inhibitor) and 100% inhibition (all assay components except enzyme). The IC50 values were determined by means of a 4-parameter fit using the company's own software.

[2] = biological target: T2, VEGF receptor tyrosine kinase-2 (Homo sapiens, UniProt P35968); assay: VEGF receptor-2 kinase assay (Assay 3); type: biochemical; conditions: 8 μM ATP, poly-(Glu4Tyr) substrate; read-out: VEGF-R2 (Assay 3) Concentration for 50% inhibition of enzyme activity, IC50
T2 construct: GST; made in house; host or cells: baculovirus-infected insect cells (Sf9)
Protocol: 10.3 Assay 3: VEGF Receptor-2 Kinase Assay
Recombinant VEGF receptor tyrosine kinase-2 was purified as GST fusion protein from baculovirus-infected insect cells (Sf9). Poly-(Glu4Tyr), used as kinase substrate, was purchased from the company Sigma.
VEGF receptor tyrosine kinase (90 ng/measuring point) was incubated for 10 min at 22° C. in the presence of various concentrations of test substances (0 μM, and within the range 0.001-30 μM) in 30 μl assay buffer [40 mM Tris/HCl pH5.5, 10 mM MgCl2, 1 mM MnCl2, 3 μM Na ortho-vanadate, 1.0 mM dithiothreitol, 8 μM adenosine triphosphate (ATP), 0.96 μg/measuring point poly-(Glu4Tyr), 0.2 μCi/measuring point ^33P-gamma ATP, 1.4% dimethylsulfoxide]. The reaction was stopped by adding EDTA solution (250 mM, pH8.0, 15 μl/measuring point).
as §1

T2 sequence (P35968 20-1356): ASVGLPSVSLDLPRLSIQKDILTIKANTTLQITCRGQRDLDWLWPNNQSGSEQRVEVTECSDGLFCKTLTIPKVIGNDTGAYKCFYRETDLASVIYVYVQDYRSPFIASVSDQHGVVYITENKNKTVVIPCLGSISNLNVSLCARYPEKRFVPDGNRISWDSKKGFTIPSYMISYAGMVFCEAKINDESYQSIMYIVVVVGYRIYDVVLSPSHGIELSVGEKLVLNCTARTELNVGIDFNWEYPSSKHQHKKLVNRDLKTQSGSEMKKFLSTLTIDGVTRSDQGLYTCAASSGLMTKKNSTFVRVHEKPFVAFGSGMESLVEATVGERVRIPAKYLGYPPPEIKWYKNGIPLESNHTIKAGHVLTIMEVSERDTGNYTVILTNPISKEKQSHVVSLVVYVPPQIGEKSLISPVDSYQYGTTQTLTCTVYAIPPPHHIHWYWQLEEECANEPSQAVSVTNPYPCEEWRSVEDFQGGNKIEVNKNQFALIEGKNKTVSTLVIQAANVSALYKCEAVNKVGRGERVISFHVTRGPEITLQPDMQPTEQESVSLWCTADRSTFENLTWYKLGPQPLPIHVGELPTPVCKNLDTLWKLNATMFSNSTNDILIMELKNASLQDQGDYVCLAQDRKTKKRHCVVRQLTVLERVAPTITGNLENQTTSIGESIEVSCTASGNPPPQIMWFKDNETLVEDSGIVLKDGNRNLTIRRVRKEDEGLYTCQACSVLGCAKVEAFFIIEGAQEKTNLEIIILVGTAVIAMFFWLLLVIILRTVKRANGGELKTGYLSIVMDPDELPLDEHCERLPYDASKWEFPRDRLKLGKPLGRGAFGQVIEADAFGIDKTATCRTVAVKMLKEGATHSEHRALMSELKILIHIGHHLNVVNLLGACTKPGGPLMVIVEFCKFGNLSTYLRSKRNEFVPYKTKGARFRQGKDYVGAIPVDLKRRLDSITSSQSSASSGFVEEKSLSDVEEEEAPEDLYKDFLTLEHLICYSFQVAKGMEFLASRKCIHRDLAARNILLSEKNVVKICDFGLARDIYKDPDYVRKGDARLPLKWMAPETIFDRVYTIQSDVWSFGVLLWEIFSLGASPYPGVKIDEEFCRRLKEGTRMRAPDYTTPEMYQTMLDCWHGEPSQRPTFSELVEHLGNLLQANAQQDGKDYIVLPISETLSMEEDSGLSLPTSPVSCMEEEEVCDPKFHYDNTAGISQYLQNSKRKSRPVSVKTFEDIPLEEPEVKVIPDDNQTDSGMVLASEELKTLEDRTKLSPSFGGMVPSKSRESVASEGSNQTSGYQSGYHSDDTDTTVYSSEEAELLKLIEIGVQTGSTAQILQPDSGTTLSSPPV
T1 sequence (P06493 whole entry): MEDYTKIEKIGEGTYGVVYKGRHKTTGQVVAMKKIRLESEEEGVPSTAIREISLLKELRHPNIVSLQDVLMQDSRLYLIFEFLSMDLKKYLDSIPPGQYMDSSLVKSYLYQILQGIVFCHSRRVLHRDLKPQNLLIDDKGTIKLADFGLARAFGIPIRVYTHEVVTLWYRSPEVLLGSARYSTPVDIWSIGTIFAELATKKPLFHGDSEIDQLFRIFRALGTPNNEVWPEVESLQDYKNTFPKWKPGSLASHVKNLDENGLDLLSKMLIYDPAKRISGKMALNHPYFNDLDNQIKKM
T1 sequence (P14635 whole entry partner): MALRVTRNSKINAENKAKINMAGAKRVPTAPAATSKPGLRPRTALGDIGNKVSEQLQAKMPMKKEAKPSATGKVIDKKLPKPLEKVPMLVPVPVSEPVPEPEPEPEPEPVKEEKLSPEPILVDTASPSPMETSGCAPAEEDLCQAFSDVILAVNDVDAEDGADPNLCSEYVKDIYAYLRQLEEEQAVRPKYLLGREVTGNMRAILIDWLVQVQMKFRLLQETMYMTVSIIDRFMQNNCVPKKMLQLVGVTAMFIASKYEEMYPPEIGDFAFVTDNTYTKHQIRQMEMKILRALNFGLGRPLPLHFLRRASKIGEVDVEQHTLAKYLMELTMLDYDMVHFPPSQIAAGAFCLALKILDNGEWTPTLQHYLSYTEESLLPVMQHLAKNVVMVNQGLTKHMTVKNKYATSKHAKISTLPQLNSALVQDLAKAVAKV

**Q.** `CCS(=N)(=O)c1ccc(Nc2ncc(Br)c(N[C@H](C)[C@@H](C)O)n2)cc1` (stereo partly shown) [Example V12] was tested. Which IC50 [1] did it give?
**A.** The IC50 was 3 nM.

**Q.** And the IC50 [2]?
**A.** The IC50 was 32 nM.

**Q.** For `C[C@@H](O)[C@@H](C)Oc1nc(Nc2ccc(S(=N)(=O)C3CC3)cc2)ncc1Br` (single isomer, unassigned) [Example V14], which IC50 [1] is on record?
**A.** Its IC50 is 4 nM.

**Q.** What about the IC50 [2] of the same molecule?
**A.** Its IC50 is 91 nM.
